The source of these data is patent US20100316631A1, “Water Soluble Curcumin-Based Compounds” (THE UAB RESEARCH FOUNDATION, priority 2006, published 2010).

For data set [1], the system named is BxPC-3. Kind of data set: Cytotoxicity assay, BxPC-3 (pancreatic). Conditions: Homo sapiens, BXPC-3, read-out: Cytotoxicity IC50, Bx-PC3.
Experimental: (§1) The growth inhibitory effects of conjugates 5 and 8 were examined through a series of cytoxcicity assays against a variety of cancer cell types of human origin. The cell types tested were PC-3 (prostate), LS-174T (colon), MIA PaCa-2 (pancreatic) and BxPC-3 (pancreatic).
(§2) The surviving cell populations were counted on the fourth day after treatment (96 hour post-treatment). The viable cells were then counted and the numbers of treated cells were normalized against the untreated controls (taken as 100%).
(§3) Tumor cells (as indicated) were maintained as monolayers in 75-cm^2 tissue culture flasks using their respective cell culture medium containing 10% fetal bovine serum and 2 mM L-glutamine. Incubation was at 37° C. under a humidified 5% CO2: air atmosphere (standard conditions) for five days. The cells were harvested when in mid-log growth and their concentration was determined using a particle counter (Beckman Coulter, Inc, Fullerton, Calif.). An aliquot of the cell suspension was diluted in culture medium for delivery to a 24-well tissue culture plate at a range of 10,000 to 30,000 per 1 mL per well. […] Following a 96-h incubation under standard conditions from the initial treatment, the viable cells were counted and the numbers were normalized to the percent of untreated controls. […]
The conditions of data set [2]: cited from earlier work.
For data set [3], the system named is LS-174T. Kind of data set: Cytotoxicity assay, LS-174T (colon). Conditions: Homo sapiens, LS174T, read-out: Cytotoxicity IC50, LS-174T.
Experimental: as §1, §2, §3
The test system of data set [4] is MIA PaCa-2. As to the kind of experiment: Cytotoxicity assay, MIA PaCa-2 (pancreatic). The following applies: Homo sapiens, MIA PaCa-2, read-out: Cytotoxicity IC50, MIA PaCa-2.
Experimental: as §1, §2, §3
Data set [5] relates to PC-3. As to the kind of experiment: Cytotoxicity assay, PC-3 (prostate). Conditions: Homo sapiens, PC-3, read-out: Cytotoxicity IC50, PC-3.
Experimental: as §1, §2, §3

One may read the IC50 as the concentration that gives 50% inhibition.

With `COc1cc(/C=C/C(=O)CC(=O)/C=C/c2ccc(O)c(OC)c2)ccc1O` [Curcumin, (E,E)-1,7-bis(4-hydroxy-3-methoxyphenyl)-1,6-heptadiene-3,5-dione], the IC50 in data set [1] turned out to be 2 ± 0.3 µM; in data set [3], 6.5 ± 1.4 µM; in data set [4], 9 ± 2.5 µM; in data set [5] it was 12 ± 1.35 µM. Moreover, the “solubility in water and other aqueous solutions” value in data set [2] is given as “insoluble”.
